From US11986540B2, “Compositions including pafolacianine for the identification of malignant lesions” (ON TARGET LABORATORIES, LLC., priority 2022, dated 2024)

What was measured:
[1] = system: cytochrome P450 (CYP) enzymes; assay: Metabolism by CYP enzymes; assay type: in vitro ADME
[2] = Excretion after single IV infusion of radiolabeled pafolacianine sodium; assay type: in vivo; settings: after approximately 3-5 weeks
[3] = system: FR-positive KB cell tumor xenografts; assay: Whole body imaging and tissue distribution, FR-positive KB tumor xenografts; assay type: in vivo, mice; settings: compared with pafolacianine
Procedure: Whole body imaging and tissue distribution of pafolacianine and OTL0039 was performed in female nu/nu mice bearing FR-positive KB cell tumor xenografts. […] This observation was consistent with the lower binding affinity of the D-isomer for FR compared with the L-isomer. Tumor fluorescence was brighter in mice receiving pafolacianine compared with other folate-conjugated near infrared dyes such as LS288, IR800 and ZW800.
The optimal dose range for pafolacianine with respect to tumor-to-background ratio in FR-positive tumor-bearing mice was 1 to 30 nmol/mouse, with lower fluorescence intensity observed in tumors at a lower dose (0.3 nmol) and higher fluorescence intensity observed in other tissues at doses above 30 nmol. In a second experiment, pafolacianine whole body imaging and tissue distribution was examined again; however, this experiment was performed in female nu/nu mice bearing FR-negative A549 cell tumor xenografts.

Row | Structure (SMILES) | metabolism by cytochrome P450 (CYP) enzymes [1] | dose recovered in feces [2] [%] | dose recovered in urine [2] [%] | dose recovered in urine and feces [2] | fluorescence signal intensity in tumors and kidneys [3]
1 | CC1(C)C(/C=C/C2=C(Oc3ccc(C[C@H](NC(=O)c4ccc(NCc5cnc6nc(N)[nH]c(=O)c6n5)cc4)C(=O)[O-])cc3)C(=C/C=C3/N(CCCCS(=O)(=O)[O-])c4ccc(S(=O)(=O)[O-])cc4C3(C)C)/CCC2)=[N+](CCCCS(=O)(=O)[O-])c2ccc(S(=O)(=O)[O-])cc21.O.[Na+].[Na+].[Na+].[Na+] [pafolacianine sodium, (S)-2-(4-(((2-amino-4-oxo-3,4-dihydropteridin-6-yl)methyl)amino)benzamido)-3-(4-(((E)-2-((E)-2-(3,3-dimethyl-5-sulfonato-1-(4-sulfonatobutyl)-3H-indol-1-ium-2-yl)vinyl)-6-((E)-2-(3,3-dimethyl-5-sulfonato-1-(4-sulfonatobutyl)indolin-2-ylidene)ethylidene)cyclohex-1-en-1-1)oxy)phenyl)propanoate hydrate tetrasodium] | not metabolized | 15.8 | 19.1 | approximately 35% | 
2 | CC1(C)C(=CC=C2CCCC(C=CC3=[N+](CCCCS(=O)(=O)[O-])c4ccc(S(=O)(=O)O)cc4C3(C)C)=C2Oc2ccc(C[C@@H](NC(=O)c3ccc(NCc4cnc5nc(N)[nH]c(=O)c5n4)cc3)C(=O)O)cc2)N(CCCCS(=O)(=O)O)c2ccc(S(=O)(=O)O)cc21 [OTL0039, reference compound] |  |  |  |  | weaker fluorescence signal intensity than pafolacianine
